# Assay results published in US5171837A, “Peptide capable of binding interleukin 6 and an adsorbent comprising the peptide immobilized on a carrier” (Kuraray Co., Ltd., priority 1989, dated 1992).
# Non-standard residues stand in square brackets, D forms with d. Residues, ends and D or L forms follow the SMILES beside them. No end group written: not given here. *: point of attachment. X1 = NCCCCCCCCCCCCCCCCCC(=O)*; 12Ado = NCCCCCCCCCCCC(=O)O
# Biological target: T1, IL-6 (Homo sapiens, UniProt P05231)
# T1 construct: purchased Genzyme Corp
# T1 sequence (P05231 30-212): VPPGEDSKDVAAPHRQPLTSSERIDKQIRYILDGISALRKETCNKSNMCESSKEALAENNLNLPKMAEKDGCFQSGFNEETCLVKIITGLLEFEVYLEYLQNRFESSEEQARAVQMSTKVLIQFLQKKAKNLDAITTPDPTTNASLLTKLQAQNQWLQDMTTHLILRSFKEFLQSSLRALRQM
# Test: Activity for inhibition of binding of IL-6 to receptor by peptide (IL-6 receptor expression cells, FITC labeled anti-IL-6 antibody)
# Details: 5 μg of the peptide, 50 ng of IL-6, 10^5 IL-6 receptor expression cells, 4° C for one hour
# Procedure: A human lymphocyte fraction was obtained from human peripheral blood with Ficoll-Paque (manufactured by Pharmacia-LKB). The fraction was reacted with a cultured supernatant of Epstein-Barr Virus producing cell strain B958 to transform the human lymphocytes to obtain IL-6 receptor expression cells.
# 1 mg of anti-human IL-6 antibody [Rabbit Anti-human Interleukin-6, manufactured by Genzyme Corp.] was dissolved in a 0.05M carbonate buffer solution (pH: 9.5) and to the resulting solution was added 10 μg of FITC [Fluorescein isothiocyanate, manufactured by Sigma Corp.]. The mixture was stirred at 4° C. overnight. The resulting solution was passed through PD-10 column (manufactured by Pharmacia-LKB) to obtain FITC labeled anti-IL-6 antibody as a firstly eluted fraction.
# 10^5 IL-6 receptor expression cells were suspended in 0.5 % BSA (bovine serum albumin, manufactured by Sigma Corp.)-PBS (a phosphate buffer solution containing 0.15 M sodium chloride, pH 7.4) and to the resulting suspension were added 50 ng of IL-6 (Human recombinant interleukin-6, manufactured by Genzyme Corp.) and 5 μg of the peptide obtained in any one of Examples 1 to 96. The suspension was allowed to stand at 4° C for one hour. Then, after washing the cells centrifugally with 0.5% BSA-PBS three times (1200 rpm, 5 min.), 1 μg of FITC labeled anti-IL-6 antibody was added and the mixture was allowed to stand at 4° C. for 30 minutes. After washing with 0.5% BSA-PBS three times, the intensity of fluorescence of the cells was determined. The binding inhibition activity of the peptide of each Example was evaluated, by taking the value obtained without addition of the peptide as a control and taking the value- obtained without addition of IL-6 as a blank, according to the following formula: [formula]
row,Molecule,Binding inhibition activity (%)
1,CC(C)C[C@H](NC(=O)[C@H](CCC(=O)O)NC(=O)[C@H](Cc1ccccc1)NC(=O)[C@H](CCCNC(=N)N)NC(=O)[C@H](CC(C)C)NC(=O)[C@H](CCCNC(=N)N)NC(=O)[C@H](Cc1ccc(O)cc1)NC(=O)[C@H](Cc1ccccc1)NC(=O)[C@H](CO)NC(=O)[C@H](CO)NC(=O)[C@H](CC(N)=O)NC(=O)[C@H](Cc1c[nH]c2ccccc12)NC(=O)CCCCCCCCCCCN)C(=O)N[C@@H](CCCNC(=N)N)C(=O)N[C@@H](Cc1ccc(O)cc1)C(=O)N[C@@H](CCCNC(=N)N)C(=O)N[C@@H](C)C(=O)N[C@@H](CCC(=O)O)C(=O)N[C@@H](CCCNC(=N)N)C(=O)N[C@@H](CO)C(=O)N[C@@H](CCCCN)C(=O)N[C@@H](CCC(=O)O)C(=O)N[C@@H](CCC(=O)O)C(=O)N[C@@H](CCC(=O)O)C(=O)N[C@@H](CCC(=O)O)C(=O)N[C@@H](CCC(=O)O)C(=O)O [Example 35] (H-[12Ado]WNSSFYRLRFELRYRAERSKEEEEE-OH),60
2,QDPHSWNSSFYRLRFELRYRAERSKK [Example 81],76
3,WQDPHSWNSSFYRLRFELRYRAERSKK [Example 89],68
4,NPRWLSVTWQDPHSK [Example 49],30
5,KGTVHLLVDVPPEEPQLSCFRKD-NH2 [Example 14],32
6,EEEGTVHLLVDVPPEEPQLSCFRKKG-NH2 [Example 15],30
7,WQDPHSWNSSFYRLRFELRYRAERSK [Example 93],59
8,KKRKFQNSPAEDFQEPCQYSQES [Example 18],55
9,PHSWNSSFYRLRFELRYRAERSKK [Example 65],68
10,WNSSFYRLRFELRYRAERSKK [Example 33],58
11,KWNSSFYRLRFELRYRAERSKD-NH2 [Example 38],56
12,HSWNSSFYRLRFELRYRAERSK [Example 61],45
13,H-Thr-Ser-Leu-Pro-Gly-Ser-Val-Thr-Leu-Thr-Cys-Pro-Gly-Val-Glu-Pro-Glu-Asp- Lys-OH (H-TSLPGSVTLTCPGVEPEDK-OH) [Example 1],38
14,CC[C@H](C)[C@H](NC(=O)[C@H](CC(N)=O)NC(=O)[C@H](CC(=O)O)NC(=O)[C@H](CC(=O)O)NC(=O)[C@H](CC(=O)O)NC(=O)[C@H](CCCCN)NC(=O)[C@H](CC(N)=O)NC(=O)[C@@H](NC(=O)[C@@H](NC(=O)[C@H](CC(C)C)NC(=O)[C@H](C)NC(=O)[C@H](CCC(N)=O)NC(=O)CCCCCCCCCCCCCCCCCN)[C@@H](C)O)[C@@H](C)O)C(=O)N[C@@H](CC(C)C)C(=O)N[C@@H](Cc1ccccc1)C(=O)N[C@@H](CCCNC(=N)N)C(=O)N[C@@H](CC(=O)O)C(=O)N[C@@H](CO)C(=O)N[C@@H](C)C(=O)NCC(=O)O [Example 28] (X1-QALTTNKDDDNILFRDSAG-OH),47
15,EEETSLPGDSVTLTCPGVEPEDKG-NH2 [Example 7],38
16,DDDDDPHSWNSSFYRLRFELRYRAERSKAAG-NH2 [Example 72],57
17,EEEWNSSFYRLRFELRYRAERSKKG-NH2 [Example 39],58
18,KKQDPHSWNSSFYRLRFELRYRAERSK [Example 82],70
19,KKPHSWNSSFYRLRFELRYRAERSK [Example 66],65
20,EEEHSWNSSFYRLRFELRYRAERSKKG-NH2 [Example 63],51
21,KKHSWNSSFYRLRFELRYRAERSK [Example 58],60
22,KNPRWLSVTWQDPHSD-NH2 [Example 54],28
23,EEEWQDPHSWNSSFYRLRFELRYRAERSKKG-NH2 [Example 95],65

row,Molecule,Binding inhibition activity (%)
1,HSWNSSFYRLRFELRYRAERSKK [Example 57],63
2,PHSWNSSFYRLRFELRYRAERSK [Example 69],54
3,CC(C)C[C@H](NC(=O)[C@H](CCC(=O)O)NC(=O)[C@H](Cc1ccccc1)NC(=O)[C@H](CCCNC(=N)N)NC(=O)[C@H](CC(C)C)NC(=O)[C@H](CCCNC(=N)N)NC(=O)[C@H](Cc1ccc(O)cc1)NC(=O)[C@H](Cc1ccccc1)NC(=O)[C@H](CO)NC(=O)[C@H](CO)NC(=O)[C@H](CC(N)=O)NC(=O)[C@H](Cc1c[nH]c2ccccc12)NC(=O)[C@H](CO)NC(=O)[C@H](Cc1c[nH]cn1)NC(=O)CCCCCCCCCCCN)C(=O)N[C@@H](CCCNC(=N)N)C(=O)N[C@@H](Cc1ccc(O)cc1)C(=O)N[C@@H](CCCNC(=N)N)C(=O)N[C@@H](C)C(=O)N[C@@H](CCC(=O)O)C(=O)N[C@@H](CCCNC(=N)N)C(=O)N[C@@H](CO)C(=O)N[C@@H](CCCCN)C(=O)N[C@@H](CCC(=O)O)C(=O)N[C@@H](CCC(=O)O)C(=O)N[C@@H](CCC(=O)O)C(=O)N[C@@H](CCC(=O)O)C(=O)N[C@@H](CCC(=O)O)C(=O)O [Example 59] (H-[12Ado]HSWNSSFYRLRFELRYRAERSKEEEEE-OH),60
4,DPHSWNSSFYRLRFELRYRAERSK [Example 77],58
5,DDDDDHSWNSSFYRLRFELRYRAERSKAAG-NH2 [Example 64],55
6,CC(C)C[C@H](NC(=O)[C@H](Cc1c[nH]c2ccccc12)NC(=O)[C@H](CCCNC(=N)N)NC(=O)[C@@H]1CCCN1C(=O)[C@H](CC(N)=O)NC(=O)CCCCCCCCCCCN)C(=O)N[C@@H](CO)C(=O)N[C@H](C(=O)N[C@H](C(=O)N[C@@H](Cc1c[nH]c2ccccc12)C(=O)N[C@@H](CCC(N)=O)C(=O)N[C@@H](CC(=O)O)C(=O)N1CCC[C@H]1C(=O)N[C@@H](Cc1c[nH]cn1)C(=O)N[C@@H](CO)C(=O)N[C@@H](CCC(=O)O)C(=O)N[C@@H](CCC(=O)O)C(=O)N[C@@H](CCC(=O)O)C(=O)N[C@@H](CCC(=O)O)C(=O)N[C@@H](CCC(=O)O)C(=O)O)[C@@H](C)O)C(C)C [Example 51] (H-[12Ado]NPRWLSVTWQDPHSEEEEE-OH),32
7,DDDDDDPHSWNSSFYRLRFELRYRAERSKAAG-NH2 [Example 80],59
8,DDDDDRKFQNSPAEDFQEPCQYSQESAAG-NH2 [Example 24],55
9,KKWQDPHSWNSSFYRLRFELRYRAERSK [Example 90],71
10,KKNPRWLSVTWQDPHS [Example 50],25
11,CC(C)C[C@H](NC(=O)[C@@H](NC(=O)[C@@H](NC(=O)[C@H](CO)NC(=O)[C@H](CC(=O)O)NC(=O)CNC(=O)[C@@H]1CCCN1C(=O)[C@H](CC(C)C)NC(=O)[C@H](CO)NC(=O)[C@@H](NC(=O)CCCCCCCCCCCN)[C@@H](C)O)C(C)C)[C@@H](C)O)C(=O)N[C@H](C(=O)N[C@@H](CS)C(=O)N1CCC[C@H]1C(=O)NCC(=O)N[C@H](C(=O)N[C@@H](CCC(=O)O)C(=O)N1CCC[C@H]1C(=O)N[C@@H](CCC(=O)O)C(=O)N[C@@H](CC(=O)O)C(=O)N[C@@H](CCC(=O)O)C(=O)N[C@@H](CCC(=O)O)C(=O)N[C@@H](CCC(=O)O)C(=O)N[C@@H](CCC(=O)O)C(=O)N[C@@H](CCC(=O)O)C(=O)O)C(C)C)[C@@H](C)O [Example 3] (H-[12Ado]TSLPGDSVTLTCPGVEPEDEEEEE-OH),40
12,DDDDDWNSSFYRLRFELRYRAERSKAAG-NH2 [Example 40],37
13,DDDDDQDPHSWNSSFYRLRFELRYRAERSKAAG-NH2 [Example 88],66
14,EEENPRWLSVTWQDPHSKG-NH2 [Example 55],28
15,DDDDDTSLPGDSVTLTCPGVEPEDAAG-NH2 [Example 8],37
16,DDDDDNPRWLSVTWQDPHSAAG-NH2 [Example 56],25
17,EEEPHSWNSSFYRLRFELRYRAERSKKG-NH2 [Example 71],60
18,QALTTNKDDDNILFRDSAK [Example 25],45
19,KQALTTNKDDDNILFRDSAD-NH2 [Example 30],46
20,KDPHSWNSSFYRLRFELRYRAERSKD-NH2 [Example 78],60
21,KKDPHSWNSSFYRLRFELRYRAERSK [Example 74],70
22,EEEDPHSWNSSFYRLRFELRYRAERSKKG-NH2 [Example 79],62
23,DDDDDQALTTNKDDDNILFRDSAAAG-NH2 [Example 32],44
